# Results reported in patent US8288371B2, “Ortho pyrrolidine, benzyl-substituted heterocycle CCR1 antagonists for autoimmune diseases and inflammation” (Pharmacopeia, LLC, priority 2007, dated 2012).
# Target: T1, human CCR1 (Homo sapiens, UniProt P32246)
# T1 sequence (P32246 1-355): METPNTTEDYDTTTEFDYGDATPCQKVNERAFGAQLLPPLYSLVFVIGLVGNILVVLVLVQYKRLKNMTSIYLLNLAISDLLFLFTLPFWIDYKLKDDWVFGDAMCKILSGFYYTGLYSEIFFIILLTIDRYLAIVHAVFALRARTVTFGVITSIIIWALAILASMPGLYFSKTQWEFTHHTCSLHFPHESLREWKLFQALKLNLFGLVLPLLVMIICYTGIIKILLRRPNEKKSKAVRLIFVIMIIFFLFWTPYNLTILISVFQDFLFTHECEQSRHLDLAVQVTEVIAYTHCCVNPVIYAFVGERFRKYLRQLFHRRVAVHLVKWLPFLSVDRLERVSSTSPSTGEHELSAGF
# Assay: CCR1 binding protocol (SPA, [125I]-MIP-1α displacement)
# Conditions: cell membrane expressing human CCR1, 0.1 nM [125I]-MIP-1α, 4 hours at ambient temperature; read-out: Relative potency (IC50)
# How it was run: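 Human CCR1 membranes (0.5 μg/well) on SPA beads were incubated with compound and 0.1 nM [125I]-MIP-1α (final) for 4 h at ambient temperature. Buffer was Tris pH 7.4 with NaCl, KCl, MnCl and 0.1% BSA. IC50 came from ½-log compound dilutions (10 mM top DMSO stock) by displacement of bound radioligand.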
row,SMILES,IC50 [µM]
1,Cc1nnc([C@H]2CCCN2C(=O)Cc2cccc(C(F)(F)F)c2)n1Cc1ccc(Cl)cc1 [Compound 461],0.05 to 0.5
2,COCc1nnc([C@H]2CCCN2C(=O)NCc2ccc(Cl)cc2Cl)n1Cc1ccc(Cl)cc1 [Compound 462],0.05 to 0.5
3,COCc1nnc([C@H]2CCCN2C(=O)N[C@@H](C)c2ccc(Cl)cc2)n1Cc1ccc(Cl)cc1 [Compound 463],0.05 to 0.5
4,Cc1nnc([C@H]2CCCN2C(=O)Nc2nnc(C(F)(F)F)s2)n1Cc1ccc(Cl)cc1 [Compound 464],0.5 to 5
5,COCc1nnc([C@H]2CCCN2C(=O)Nc2ccc(Cl)cc2F)n1Cc1ccc(Cl)cc1 [Compound 465],0.5 to 5
6,O=C(NCc1ccc(Cl)cc1Cl)N1C[C@H](O)C[C@@H]1c1nncn1Cc1ccc(Cl)cc1 [Compound 475],0.05 to 0.5
7,O=C(NC(c1ccccc1)c1ccccc1)N1C[C@H](O)C[C@@H]1c1nncn1Cc1ccc(Cl)cc1 [Compound 476],0.05 to 0.5
8,O=C(NC1(c2ccc(C(F)(F)F)cc2)CC1)N1C[C@H](O)C[C@@H]1c1nncn1Cc1ccc(Cl)cc1 [Compound 477],0.05 to 0.5
9,CC(=O)O[C@@H]1C[C@H](c2nncn2Cc2ccc(Cl)cc2)N(C(=O)NC(c2ccccc2)c2ccccc2)C1 [Compound 478],0.05 to 0.5
10,Cc1nnc([C@H]2CCCN2C(=O)C[C@H](C)c2ccccc2)n1Cc1ccc(Cl)cc1 [Compound 479],0.05 to 0.5
11,O=C(Nc1ccc(Cl)cc1F)N1C[C@H](O)C[C@@H]1c1nncn1Cc1ccc(Cl)cc1 [Compound 480],0.05 to 0.5
12,CC(=O)O[C@H]1C[C@H](c2nnc(C)n2Cc2ccc(Cl)cc2)N(C(=O)Nc2ccc(Cl)cc2F)C1 [Compound 481],0.5 to 5
13,Cc1nnc([C@H]2CCCN2C(=O)C[C@@H](C)c2ccccc2)n1Cc1ccc(Cl)cc1 [Compound 482],0.5 to 5
14,CC(=O)O[C@@H]1C[C@H](c2ncnn2Cc2ccc(Cl)cc2)N(C(=O)Nc2ccc(Cl)cc2F)C1 [Compound 485],0.5 to 5
15,NC(=O)c1nnc([C@H]2CCCN2C(=O)N[C@H]2CCOc3cc(C(F)(F)F)ccc32)n1Cc1ccc(Cl)cc1 [Compound 489],0.5 to 5
16,NC(=O)c1nnc([C@H]2CCCN2C(=O)Nc2ccc(Cl)cc2F)n1Cc1ccc(Cl)cc1 [Compound 490],0.5 to 5
17,Cc1nnc([C@H]2C[C@H](O)CN2C(=O)Nc2ccc(Cl)nc2Cl)n1Cc1ccc(Cl)cc1 [Compound 492],0.05 to 0.5
18,Cc1nnc([C@H]2C[C@@H](O)CN2C(=O)Nc2ccc(C(F)(F)F)nc2Cl)n1Cc1ccc(Cl)cc1 [Compound 494],0.05 to 0.5

row,SMILES,IC50 [µM]
1,CC[C@@H](NC(=O)N1C[C@@H](O)C[C@@H]1c1nnc(C)n1Cc1ccc(Cl)cc1)c1ccc(C)o1 [Compound 495],0.05 to 0.5
2,CC(=O)O[C@@H]1C[C@H](c2nnc(C)n2Cc2ccc(Cl)cc2)N(C(=O)Nc2ccc(C(F)(F)F)nc2Cl)C1 [Compound 496],0.05 to 0.5
3,Cc1nnc([C@H]2CCCN2C(=O)Cc2cccc(Cl)c2)n1Cc1ccc(Cl)cc1 [Compound 497],0.05 to 0.5
4,Cc1nnc([C@H]2C[C@@H](O)CN2C(=O)Nc2ccc(Cl)nc2Cl)n1Cc1ccc(Cl)cc1 [Compound 498],0.05 to 0.5
5,Cc1nnc([C@H]2C[C@H](O)CN2C(=O)Cc2cccc(C(F)(F)F)c2)n1Cc1ccc(Cl)cc1 [Compound 499],0.05 to 0.5
6,CC(=O)O[C@@H]1C[C@H](c2nnc(C)n2Cc2ccc(Cl)cc2)N(C(=O)Nc2ccc(Cl)nc2Cl)C1 [Compound 500],0.05 to 0.5
7,CC[C@@H](NC(=O)N1C[C@H](O)C[C@@H]1c1nnc(C)n1Cc1ccc(Cl)cc1)c1ccc(C)o1 [Compound 501],0.05 to 0.5
8,Cc1nnc([C@H]2C[C@@H](O)CN2C(=O)Cc2cccc(C(F)(F)F)c2)n1Cc1ccc(Cl)cc1 [Compound 502],0.05 to 0.5
9,CC[C@@H](NC(=O)N1C[C@H](OC(C)=O)C[C@@H]1c1nnc(C)n1Cc1ccc(Cl)cc1)c1ccc(C)o1 [Compound 503],0.5 to 5
10,Cc1nnc([C@H]2CCCN2C(=O)Cc2ccc(F)c(C(F)(F)F)c2)n1Cc1ccc(Cl)cc1 [Compound 504],0.05 to 0.5
11,Cc1nnc([C@H]2CCCN2C(=O)Cc2cccc(C(F)(F)F)c2F)n1Cc1ccc(Cl)cc1 [Compound 505],0.05 to 0.5
12,Cc1nnc([C@H]2CCCN2C(=O)Cc2ccc(Cl)cc2F)n1Cc1ccc(Cl)cc1 [Compound 507],0.05 to 0.5
13,Cc1nnc([C@H]2CCCN2C(=O)C(C)c2cccc(Cl)c2)n1Cc1ccc(Cl)cc1 (some centres unmarked) [Compound 508],0.05 to 0.5
14,Cc1nnc([C@H]2CCCN2C(=O)Cc2cc(F)cc(C(F)(F)F)c2)n1Cc1ccc(Cl)cc1 [Compound 509],0.05 to 0.5
15,Cc1nnc([C@H]2CCCN2C(=O)N[C@@H](C)c2nc3ccccc3o2)n1Cc1ccc(Cl)cc1 [Compound 514],0.05 to 0.5
16,CC[C@H](NC(=O)N1CCC[C@@H]1c1nnc(C)n1Cc1ccc(Cl)cc1)c1nc2ccccc2o1 [Compound 516],0.5 to 5
17,Cc1nc(C(F)(F)F)ccc1NC(=O)N1CC(C)(O)C[C@@H]1c1nnc(C)n1Cc1ccc(Cl)cc1 (some centres unmarked) [Compound 517],0.05 to 0.5

# Next, values leading:
row,IC50 [µM],SMILES
1,0.05 to 0.5,Cc1c(Cl)nc([C@H]2CCCN2C(=O)Nc2ccc(Cl)cc2F)n1Cc1ccc(Cl)cc1 [Compound 457]
2,< 0.05,CC[C@@H](NC(=O)N1CCC[C@@H]1c1nnc(C)n1Cc1ccc(Cl)cc1)c1ccc(C(F)(F)F)nc1 [Compound 458]
3,< 0.05,COCc1nnc([C@H]2CCCN2C(=O)N[C@H]2CCOc3cc(C(F)(F)F)ccc32)n1Cc1ccc(Cl)cc1 [Compound 459]
4,< 0.05,Cc1nnc([C@H]2CCCN2C(=O)N[C@H](C)c2ccc(C(F)(F)F)nc2)n1Cc1ccc(Cl)cc1 [Compound 460]
5,< 0.05,Cc1nc(C(F)(F)F)nc(C)c1NC(=O)N1CCC[C@@H]1c1nnc(C)n1Cc1ccc(Cl)cc1 [Compound 466]
6,< 0.05,CC[C@H](NC(=O)N1CCC[C@@H]1c1nnc(C)n1Cc1ccc(Cl)cc1)c1ccc(C(F)(F)F)nc1 [Compound 467]
7,< 0.05,Cc1nnc([C@H]2CCCN2C(=O)N[C@@H](C)c2ccc(C(F)(F)F)nc2)n1Cc1ccc(Cl)cc1 [Compound 468]
8,< 0.05,Cc1cc(C)c(S(N)(=O)=O)cc1NC(=O)N1CCC[C@@H]1c1nnc(C)n1Cc1ccc(Cl)cc1 [Compound 469]
9,< 0.05,Cc1nnc([C@H]2C[C@H](O)CN2C(=O)NCc2ccc(Cl)cc2Cl)n1Cc1ccc(Cl)cc1 [Compound 470]
10,< 0.05,Cc1nnc([C@H]2C[C@H](O)CN2C(=O)NCc2ccc(C(F)(F)F)cc2)n1Cc1ccc(Cl)cc1 [Compound 471]
11,< 0.05,O=C(N[C@H]1CCOc2cc(C(F)(F)F)ccc21)N1C[C@H](O)C[C@@H]1c1nncn1Cc1ccc(Cl)cc1 [Compound 472]
12,< 0.05,Cc1nnc([C@H]2CCCN2C(=O)Nc2c(F)cc(F)cc2F)n1Cc1ccc(Cl)cc1 [Compound 473]
13,< 0.05,Cc1nnc([C@H]2C[C@H](O)CN2C(=O)N[C@@H](C)c2ccc(Cl)cc2)n1Cc1ccc(Cl)cc1 [Compound 474]
14,< 0.05,Cc1cc(C)c(S(=O)(=O)N(C)C)cc1NC(=O)N1CCC[C@@H]1c1nnc(C)n1Cc1ccc(Cl)cc1 [Compound 483]
15,< 0.05,CNS(=O)(=O)c1cc(NC(=O)N2CCC[C@@H]2c2nnc(C)n2Cc2ccc(Cl)cc2)c(C)cc1C [Compound 484]
16,< 0.05,Cc1nnc([C@H]2CCCN2C(=O)Nc2ccc(S(N)(=O)=O)cc2Cl)n1Cc1ccc(Cl)cc1 [Compound 486]
17,< 0.05,Cc1nnc([C@H]2CCCN2C(=O)Nc2ccc(Cl)c(C#N)c2)n1Cc1ccc(Cl)cc1 [Compound 487]
18,< 0.05,CC(=O)O[C@@H]1C[C@H](c2ncnn2Cc2ccc(Cl)cc2)N(C(=O)N[C@H]2CCOc3cc(C(F)(F)F)ccc32)C1 [Compound 488]
19,< 0.05,Cc1nnc([C@H]2C[C@H](O)CN2C(=O)Nc2ccc(C(F)(F)F)nc2Cl)n1Cc1ccc(Cl)cc1 [Compound 491]
20,< 0.05,Cc1nnc([C@H]2CC(=O)CN2C(=O)N[C@H]2CCOc3cc(C(F)(F)F)ccc32)n1Cc1ccc(Cl)cc1 [Compound 506]
21,< 0.05,Cc1nnc([C@H]2CCCN2C(=O)Cc2cc(C(F)(F)F)ccc2F)n1Cc1ccc(Cl)cc1 [Compound 510]
22,< 0.05,Cc1nnc([C@H]2CCCN2C(=O)Cc2cc(C(F)(F)F)ccc2Cl)n1Cc1ccc(Cl)cc1 [Compound 511]
23,< 0.05,Cc1nnc([C@H]2CCCN2C(=O)N[C@H](C)c2nc3ccccc3o2)n1Cc1ccc(Cl)cc1 [Compound 513]
24,< 0.05,Cc1nnc([C@H]2CCCN2C(=O)CC2CCOc3cc(C(F)(F)F)ccc32)n1Cc1ccc(Cl)cc1 (some centres unmarked) [Compound 515]
25,< 0.05,Cc1nnc([C@H]2CCCN2C(=O)Cc2ccc(Cl)nc2)n1Cc1ccc(Cl)cc1 [Compound 518]
26,< 0.05,Cc1nnc([C@H]2CCCN2C(=O)Nc2ccc(C(F)(F)F)[n+]([O-])c2C)n1Cc1ccc(Cl)cc1 [Compound 519]
27,< 0.05,Cc1cc(C)[n+]([O-])c(C)c1NC(=O)N1CCC[C@@H]1c1nnc(C)n1Cc1ccc(Cl)cc1 [Compound 520]
28,< 0.05,Cc1nc(C(F)(F)F)ccc1NC(=O)N1C[C@H](O)C[C@@H]1c1nnc(C)n1Cc1ccc(Cl)cc1 [Compound 521]
29,< 0.05,Cc1nnc([C@H]2C[C@@H](O)CN2C(=O)N[C@H]2CCOc3cc(C#N)ccc32)n1Cc1ccc(Cl)cc1 [Compound 522]
30,< 0.05,Cc1nnc([C@H]2C[C@H](O)CN2C(=O)N[C@H]2CCOc3cc(C#N)ccc32)n1Cc1ccc(Cl)cc1 [Compound 523]
